The record followed here is PubChem BioAssay (NCI).

Each structure is given as a SMILES string.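 Each compound was tested at five concentrations against cells in 96-well plates for 48 hours. GI50: concentration for 50% inhibition of growth. The concentration for full growth arrest is given as TGI.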

Holding throughout (assay): NCI-60 cell line screen, 48 h
For experiment [1], the system named is IGROV1 ovarian.
Experiment [2] deals with MDA-MB-435.
Experiment [3] relates to DU-145 prostate.
Experiment [4] concerns SK-MEL-2 melanoma.
The subject of experiment [5] is SNB-75 CNS.
Experiment [6] deals with HS 578T breast.
Experiment [7] deals with TK-10 renal.
Experiment [8] relates to A549 NSCLC.

For `Cn1cc(-c2nonc2-c2cn(C)c3ccccc23)c2ccccc21`, the GI50 was 1.53 µM in experiment [1]; 0.228 µM in experiment [2]; 1.27 µM in experiment [3]; 1.22 µM in experiment [4]; 0.176 µM in experiment [5]; 0.508 µM in experiment [6]. Moreover, the GI50 was 6.23 µM in experiment [7] and 1.22 µM in experiment [8]. For the same molecule, the TGI is more than 100 µM in experiment [1]; 0.635 µM in experiment [2]; more than 100 µM in experiment [3]; more than 100 µM in experiment [4]; 0.842 µM in experiment [5]; 24.6 µM in experiment [6]. Besides, the TGI in experiment [7] and in experiment [8] was more than 100 µM in each case.
As for `N#Cc1c(N)[nH]c2ccc(Sc3ccccc3)cc12`, the TGI in experiment [1] was found to be 8.36 µM; in experiment [2], 0.146 µM; in experiment [3], 15.5 µM; in experiment [4] it was 17.5 µM; in experiment [5] it was 23 µM; in experiment [6], 25.8 µM. Moreover, the TGI was 20.8 µM in experiment [7] and 12.1 µM in experiment [8].
As to `CC(C)(C)CN1CCn2c(nc3c(N)nccc32)S1`, the GI50 in experiment [1] is 11.7 µM; in experiment [2], 6.67 µM; in experiment [3] it was 4.46 µM; in experiment [4] it was 69.3 µM; in experiment [5], 51.5 µM; in experiment [6] it was 33.6 µM. The values for the GI50 in experiment [7] and in experiment [8] were 16.6 µM and 8.09 µM, respectively. Also, the TGI in experiment [1] was 30.3 µM; in experiment [2], 86.1 µM; in experiment [3] it was more than 100 µM; in experiment [4], more than 100 µM; in experiment [5], more than 100 µM; in experiment [6], more than 100 µM. The results for the TGI in experiment [7] and in experiment [8] were more than 100 µM and 44.4 µM, respectively.
On to `Nc1ccc(-c2nc3ccccc3[nH]2)c2ccccc12`, for which the GI50 in experiment [1] is 3.36 µM; in experiment [2], 0.198 µM; in experiment [3], 2.81 µM; in experiment [4], 14.2 µM; in experiment [5] it was 0.809 µM; in experiment [6], 3.5 µM. Besides, the GI50 in experiment [7] is 7.24 µM; in experiment [8], 6.6 µM. The TGI in experiment [1] is 42.6 µM; in experiment [2] it was 0.812 µM; in experiment [3], more than 22.3 µM; in experiment [4] it was more than 100 µM; in experiment [5] it was 4.39 µM; in experiment [6], more than 30 µM. Also, the figures for the TGI in experiment [7] and in experiment [8] were more than 100 µM and 50.3 µM, respectively.
Take `C[C@@H]1O[C@@H](O[C@H]2CC[C@@]3(C)[C@H](CCC4[C@@H]3C(O)C[C@]3(C)[C@@H](c5ccc(=O)oc5)CC[C@]43O)C2)[C@H](O)[C@H](O)[C@H]1O` (some centres undefined): the GI50 is 0.0065 µM in experiment [1]; 0.00633 µM in experiment [2]; 0.00355 µM in experiment [3]; 0.00741 µM in experiment [4]; 0.0047 µM in experiment [5]; less than 0.00325 µM in experiment [6]. Also, the GI50 in experiment [7] and in experiment [8] was less than 0.00325 µM in each case. The TGI in experiment [1] is 0.0237 µM; in experiment [2], 0.0131 µM; in experiment [3], 0.00516 µM; in experiment [4], 0.0163 µM; in experiment [5], 0.0107 µM; in experiment [6], 0.0659 µM. Also, the values for the TGI in experiment [7] and in experiment [8] were 0.00555 µM and 0.00441 µM, respectively.
As for `CC1=CC(=O)C(O)C2(C)C1CC(O)C13COC4(C)C(OC(=O)C41)C(O)C23` (centres undefined), the GI50 in experiment [1] is 12.3 µM; in experiment [2], 6.86 µM; in experiment [3], 4.36 µM; in experiment [4], 6.36 µM; in experiment [5] it was 22 µM; in experiment [6], 12.5 µM. Also, the GI50 is 12.1 µM in experiment [7] and 5.49 µM in experiment [8]. For the same molecule, the TGI in experiment [1] was 45.8 µM; in experiment [2], 43 µM; in experiment [3], 31.6 µM; in experiment [4], 29.5 µM; in experiment [5] it was more than 100 µM; in experiment [6], 57.2 µM. Further, the TGI in experiment [7] came to 44.3 µM; in experiment [8] it was 34 µM.
With `COC(=O)c1nc(-c2ccccc2)oc1S(=O)(=O)n1nc(C)cc1N`, the GI50 in experiment [1] was 15.7 µM; in experiment [2] it was 11.4 µM; in experiment [3] it was 15.9 µM; in experiment [4] it was 13.7 µM; in experiment [5], 13.2 µM; in experiment [6], 25.8 µM. Also, the GI50 in experiment [7] was 11.3 µM; in experiment [8] it was 28.9 µM. In addition, the TGI is 36.5 µM in experiment [1]; 25.3 µM in experiment [2]; 29.3 µM in experiment [3]; 30.5 µM in experiment [4]; 26.6 µM in experiment [5]; 90.2 µM in experiment [6]. Further, the figures for the TGI in experiment [7] and in experiment [8] were 24.6 µM and 84 µM, respectively.
As for `Cc1ccc(C2=Nc3ccccc3SC(c3cccc([N+](=O)[O-])c3)C2)cc1` (centres undefined), the TGI in experiment [1] is more than 100 µM; in experiment [2] it was 79.2 µM; in experiment [3], more than 100 µM; in experiment [4], more than 100 µM; in experiment [5], 38.6 µM; in experiment [6] it was 94.7 µM. Further, the TGI in experiment [7] was 86.8 µM; in experiment [8], more than 100 µM.
In the case of `CC(C)(C)c1ccc(C(=O)Nc2sc3c(c2C(N)=O)CCC(=O)C3)cc1`, the GI50 is 0.684 µM in experiment [1]; 1.67 µM in experiment [2]; 2.72 µM in experiment [3]; 1.9 µM in experiment [4]; 1.11 µM in experiment [5]; 1.11 µM in experiment [6]. Also, the GI50 in experiment [7] was 1.42 µM; in experiment [8], 0.688 µM. Also, the TGI in experiment [1] turned out to be 2.29 µM; in experiment [2], 3.7 µM; in experiment [3] it was 11.1 µM; in experiment [4] it was 4.73 µM; in experiment [5], 2.53 µM; in experiment [6], 5.33 µM. The TGI in experiment [7] was determined as 4.77 µM; in experiment [8], 3.28 µM.
As to `CCN(CCO)CC(C)Nc1ccc([N+](=O)[O-])c2sc3ccccc3c(=O)c12` (centres undefined), the GI50 was 0.34 µM in experiment [1]; 1.54 µM in experiment [2]; 1.24 µM in experiment [3]; 1.23 µM in experiment [4]; 1.84 µM in experiment [5]; 1.75 µM in experiment [6]. The GI50 in experiment [7] was 1.44 µM; in experiment [8], 0.535 µM. For the same molecule, the TGI was 1.6 µM in experiment [1]; 3.8 µM in experiment [2]; 4.9 µM in experiment [3]; 3.64 µM in experiment [4]; 12.6 µM in experiment [5]; 10.5 µM in experiment [6]. The TGI worked out at 11.7 µM in experiment [7] and 1.97 µM in experiment [8].
